According to publication PMC10841072 (European journal of medicinal chemistry, 2023):

Columns and labels:
[1] = molecular target: human D3 expressed in HEK cells (Homo sapiens, UniProt P35462); test: Radioligand binding assay with [125I]IABN, D3R; details: for D2R/D3R selectivity, (Ki for D2R)/(Ki for D3R): ratio of Ki values
[2] = molecular target: human D3 receptor over-expressed in CHO-K1 cells (Homo sapiens, UniProt P35462); test: PathHunter β-arrestin recruitment assay, competition with dopamine; assay type: cell-based; details: 30 nM (EC80) dopamine, Mean ± SEM, at least three experiments
[3] = molecular target: human D2 (long) expressed in HEK cells (Homo sapiens, UniProt P14416); test: Radioligand binding assay with [125I]IABN, D2R
Chain of human D2 (long) expressed in HEK cells (P14416 whole entry): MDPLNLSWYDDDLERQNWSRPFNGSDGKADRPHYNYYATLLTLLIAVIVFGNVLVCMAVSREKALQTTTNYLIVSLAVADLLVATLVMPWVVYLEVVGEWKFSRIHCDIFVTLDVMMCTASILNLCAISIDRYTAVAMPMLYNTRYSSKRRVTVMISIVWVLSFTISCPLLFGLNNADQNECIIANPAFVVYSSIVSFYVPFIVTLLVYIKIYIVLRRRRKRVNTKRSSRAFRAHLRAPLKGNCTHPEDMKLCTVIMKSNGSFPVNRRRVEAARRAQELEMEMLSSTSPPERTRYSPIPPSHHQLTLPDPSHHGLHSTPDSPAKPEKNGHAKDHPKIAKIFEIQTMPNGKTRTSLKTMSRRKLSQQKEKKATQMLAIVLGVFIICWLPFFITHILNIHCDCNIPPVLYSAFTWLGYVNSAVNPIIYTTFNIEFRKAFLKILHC

Chain of human D3 receptor over-expressed in CHO-K1 cells (P35462 whole entry): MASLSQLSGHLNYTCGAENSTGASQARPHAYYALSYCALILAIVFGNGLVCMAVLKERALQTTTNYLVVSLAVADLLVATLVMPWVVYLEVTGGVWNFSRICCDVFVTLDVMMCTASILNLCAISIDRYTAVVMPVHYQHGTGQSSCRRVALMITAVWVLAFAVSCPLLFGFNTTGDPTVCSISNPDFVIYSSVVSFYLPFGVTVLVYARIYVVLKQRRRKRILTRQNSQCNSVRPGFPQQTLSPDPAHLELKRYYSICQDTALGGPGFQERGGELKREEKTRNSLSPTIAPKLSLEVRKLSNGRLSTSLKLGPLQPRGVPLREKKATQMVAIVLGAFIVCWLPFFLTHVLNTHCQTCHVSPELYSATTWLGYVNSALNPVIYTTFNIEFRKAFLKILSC
Chain of human D3 expressed in HEK cells (P35462 whole entry): as above

With C=CCN1C[C@H](OC(=O)Nc2ccoc2)C[C@H]1CNC(=O)c1cc(CCCF)cc(OC)c1OC [Compound 37h, (3R,5S)-1-allyl-5-((5-(3-fluoropropyl)-2,3-dimethoxybenzamido)methyl)pyrrolidin-3-yl furan-3-ylcarbamate] the “D2R/D3R selectivity, (Ki for D2R)/(Ki for D3R)” value [1] was “higher affinity for D2R versus D3R”.

With C=CCN1C[C@H](OC(=O)Nc2ccc(-c3ccsc3)cc2)C[C@H]1CNC(=O)c1cc(CCCF)cc(OC)c1OC [Compound 37l, (3R,5S)-1-allyl-5-((5-(3-fluoropropyl)-2,3-dimethoxybenzamido)methyl)pyrrolidin-3-yl (4-(thiophen-3-yl)phenyl)carbamate] the “IC50 in β-arrestin recruitment assay (inhibiting dopamine)” value (shortened to “IC50 … (inhibiting dopamine)”) [2] was “much lower potency”.

Compound C=CCN1C[C@@H](OCCCN)C[C@H]1CNC(=O)c1cc(CCCF)cc(OC)c1OC [Compound 40, N-(((2S,4S)-1-allyl-4-(3-aminopropoxy)pyrrolidin-2-yl)methyl)-5-(3-fluoropropyl)-2,3-dimethoxybenzamide] has a Ki [3] of 0.0169 ± 0.0009 µM.

With C=CCN1C[C@H](OCCN)C[C@H]1CNC(=O)c1cc(CCCF)cc(OC)c1OC [Compound 35a, N-(((2S,4R)-1-allyl-4-(2-aminoethoxy)pyrrolidin-2-yl)methyl)-5-(3-fluoropropyl)-2,3-dimethoxybenzamide] the “higher affinity for D3R versus D2R” value [1] was 11 fold.

CCN1C[C@H](OC(=O)Nc2ccc(-c3ccsc3)cc2)C[C@H]1CNC(=O)c1cc(CCCF)cc(OC)c1OC [Compound 47, (3R,5S)-1-ethyl-5-((5-(3-fluoropropyl)-2,3-dimethoxybenzamido)methyl)pyrrolidin-3-yl (4-(thiophen-3-yl)phenyl)carbamate] was tested, and the “IC50 … (inhibiting dopamine)” value [2] was “much lower potency”.

With C=CCN1C[C@H](OC(=O)Nc2ccc(-c3ccccn3)cc2)C[C@H]1CNC(=O)c1cc(CCCF)cc(OC)c1OC [Compound 37k, (3R,5S)-1-allyl-5-((5-(3-fluoropropyl)-2,3-dimethoxybenzamido)methyl)pyrrolidin-3-yl (4-(pyridin-2-yl)phenyl)carbamate] the “IC50 … (inhibiting dopamine)” value [2] was “much lower potency”.

For C=CCN1C[C@@H](OC(=O)Nc2ccc(-c3ccsc3)cc2)C[C@H]1CNC(=O)c1cc(CCCF)cc(OC)c1OC [Compound 41, (3S,5S)-1-allyl-5-((5-(3-fluoropropyl)-2,3-dimethoxybenzamido)methyl)pyrrolidin-3-yl (4-(thiophen-3-yl)phenyl)carbamate], the “D2R/D3R selectivity, (Ki for D2R)/(Ki for D3R)” value [1] was “modest”.
